Data from patent US11208412B2 (DAEGU-GYEONGBUK MEDICAL INNOVATION FOUNDATION, priority 2017, dated 2021).

Assays:
Assay in all cases: Kinase selectivity, DiscoverX scanMAX Kinase assay panel (% control)
Type in all cases: binding
[1] = biological target: T1, kinases of the scanMAX Kinase assay panel (Homo sapiens, UniProt Q9C098); details: DCAMKL3; 1 uM
T1 construct: purchased DiscoverX Co. (contract measurement) scanMAX Kinase assay panel
Outline: (§1)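 Each enzyme is treated with drug at 1 uM in DMSO, then signal is scaled between a positive control (0%) and DMSO (100%) to give % control. Kinases with % control under 35% are scored as inhibited.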

[2] = biological target: T2, kinases of the scanMAX Kinase assay panel (Homo sapiens, UniProt P08581, Y1235D); details: MET(Y1235D); 1 uM
T2 construct: purchased DiscoverX Co. (contract measurement) scanMAX Kinase assay panel
Outline: as §1

[3] = biological target: T3, kinases of the scanMAX Kinase assay panel (Homo sapiens, UniProt O14920); details: IKK-beta; 1 uM
T3 construct: purchased DiscoverX Co. (contract measurement) scanMAX Kinase assay panel
T3 sequence (O14920 1-756): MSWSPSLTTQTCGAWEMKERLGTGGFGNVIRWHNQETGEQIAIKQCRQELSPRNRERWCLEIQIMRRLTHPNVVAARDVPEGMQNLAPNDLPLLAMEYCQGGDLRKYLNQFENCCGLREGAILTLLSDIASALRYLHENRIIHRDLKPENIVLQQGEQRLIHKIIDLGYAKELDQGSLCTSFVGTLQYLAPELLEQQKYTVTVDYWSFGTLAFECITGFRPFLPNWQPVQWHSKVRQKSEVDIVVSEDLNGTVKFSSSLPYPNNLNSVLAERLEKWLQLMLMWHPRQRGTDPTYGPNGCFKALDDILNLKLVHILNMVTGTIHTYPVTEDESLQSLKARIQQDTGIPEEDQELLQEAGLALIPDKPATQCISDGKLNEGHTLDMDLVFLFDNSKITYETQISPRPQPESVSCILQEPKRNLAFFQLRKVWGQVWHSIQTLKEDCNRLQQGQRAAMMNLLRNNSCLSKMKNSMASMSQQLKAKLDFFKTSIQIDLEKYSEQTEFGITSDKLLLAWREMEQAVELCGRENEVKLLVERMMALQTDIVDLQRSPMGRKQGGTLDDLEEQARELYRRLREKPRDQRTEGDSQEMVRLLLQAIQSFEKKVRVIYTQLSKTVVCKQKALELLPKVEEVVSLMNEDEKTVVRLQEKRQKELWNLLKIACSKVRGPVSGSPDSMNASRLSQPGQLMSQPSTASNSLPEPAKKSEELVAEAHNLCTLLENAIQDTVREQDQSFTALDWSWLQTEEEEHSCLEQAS
Outline: as §1

[4] = biological target: T4, kinases of the scanMAX Kinase assay panel (Homo sapiens, UniProt Q9UEW8); details: kinase STK39; 1 uM in DMSO
T4 construct: purchased DiscoverX Co. (contract measurement) scanMAX Kinase assay panel
Outline: as §1

[5] = biological target: T5, kinases of the scanMAX Kinase assay panel (Homo sapiens, UniProt Q14012); details: CAMK1; 1 uM
T5 construct: purchased DiscoverX Co. (contract measurement) scanMAX Kinase assay panel
Outline: as §1

[6] = biological target: T6, kinases of the scanMAX Kinase assay panel (Homo sapiens, UniProt P42336, M1043I); details: PIK3CA(M1043I); 1 uM
T6 construct: purchased DiscoverX Co. (contract measurement) scanMAX Kinase assay panel
Outline: as §1

[7] = biological target: T7, kinases of the scanMAX Kinase assay panel (Homo sapiens, UniProt Q2M2I8); details: AAK1; 1 uM
T7 construct: purchased DiscoverX Co. (contract measurement) scanMAX Kinase assay panel
Outline: as §1

[8] = biological target: T8, kinases of the scanMAX Kinase assay panel (Homo sapiens, UniProt P10721, V559D); details: KIT(V559D); 1 uM
T8 construct: purchased DiscoverX Co. (contract measurement) scanMAX Kinase assay panel
Outline: as §1

[9] = biological target: T9, kinases of the scanMAX Kinase assay panel (Homo sapiens, UniProt P07333); details: 1 uM
T9 construct: purchased DiscoverX Co. (contract measurement) scanMAX Kinase assay panel
Outline: as §1

[10] = biological target: T10, kinases of the scanMAX Kinase assay panel (Homo sapiens, UniProt Q8NE63); details: HIPK4; 1 uM
T10 construct: purchased DiscoverX Co. (contract measurement) scanMAX Kinase assay panel
T10 sequence (Q8NE63 1-616): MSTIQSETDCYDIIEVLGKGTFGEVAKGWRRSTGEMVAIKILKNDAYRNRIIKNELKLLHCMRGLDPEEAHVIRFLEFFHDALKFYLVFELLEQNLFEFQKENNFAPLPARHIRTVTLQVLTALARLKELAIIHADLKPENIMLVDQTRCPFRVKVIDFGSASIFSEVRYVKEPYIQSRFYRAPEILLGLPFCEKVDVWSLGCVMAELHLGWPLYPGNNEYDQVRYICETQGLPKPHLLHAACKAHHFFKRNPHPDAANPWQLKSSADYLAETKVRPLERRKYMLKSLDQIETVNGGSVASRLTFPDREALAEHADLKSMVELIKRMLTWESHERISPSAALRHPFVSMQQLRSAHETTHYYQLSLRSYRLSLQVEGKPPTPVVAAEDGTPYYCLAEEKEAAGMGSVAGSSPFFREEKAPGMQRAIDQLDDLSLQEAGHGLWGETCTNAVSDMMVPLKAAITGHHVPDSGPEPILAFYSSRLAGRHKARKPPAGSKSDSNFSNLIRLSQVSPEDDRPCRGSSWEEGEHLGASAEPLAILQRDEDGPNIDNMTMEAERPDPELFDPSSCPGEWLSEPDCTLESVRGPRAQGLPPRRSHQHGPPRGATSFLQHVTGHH
Outline: as §1

[11] = biological target: T11, kinases of the scanMAX Kinase assay panel (Homo sapiens, UniProt P42336, H1047L); details: PIK3CA(H1047L); 1 uM
T11 construct: purchased DiscoverX Co. (contract measurement) scanMAX Kinase assay panel
Outline: as §1

[12] = biological target: T12, kinases of the scanMAX Kinase assay panel (Homo sapiens, UniProt Q9H422); details: HIPK3; 1 uM
T12 construct: purchased DiscoverX Co. (contract measurement) scanMAX Kinase assay panel
Outline: as §1

T7 sequence (Q2M2I8 whole entry): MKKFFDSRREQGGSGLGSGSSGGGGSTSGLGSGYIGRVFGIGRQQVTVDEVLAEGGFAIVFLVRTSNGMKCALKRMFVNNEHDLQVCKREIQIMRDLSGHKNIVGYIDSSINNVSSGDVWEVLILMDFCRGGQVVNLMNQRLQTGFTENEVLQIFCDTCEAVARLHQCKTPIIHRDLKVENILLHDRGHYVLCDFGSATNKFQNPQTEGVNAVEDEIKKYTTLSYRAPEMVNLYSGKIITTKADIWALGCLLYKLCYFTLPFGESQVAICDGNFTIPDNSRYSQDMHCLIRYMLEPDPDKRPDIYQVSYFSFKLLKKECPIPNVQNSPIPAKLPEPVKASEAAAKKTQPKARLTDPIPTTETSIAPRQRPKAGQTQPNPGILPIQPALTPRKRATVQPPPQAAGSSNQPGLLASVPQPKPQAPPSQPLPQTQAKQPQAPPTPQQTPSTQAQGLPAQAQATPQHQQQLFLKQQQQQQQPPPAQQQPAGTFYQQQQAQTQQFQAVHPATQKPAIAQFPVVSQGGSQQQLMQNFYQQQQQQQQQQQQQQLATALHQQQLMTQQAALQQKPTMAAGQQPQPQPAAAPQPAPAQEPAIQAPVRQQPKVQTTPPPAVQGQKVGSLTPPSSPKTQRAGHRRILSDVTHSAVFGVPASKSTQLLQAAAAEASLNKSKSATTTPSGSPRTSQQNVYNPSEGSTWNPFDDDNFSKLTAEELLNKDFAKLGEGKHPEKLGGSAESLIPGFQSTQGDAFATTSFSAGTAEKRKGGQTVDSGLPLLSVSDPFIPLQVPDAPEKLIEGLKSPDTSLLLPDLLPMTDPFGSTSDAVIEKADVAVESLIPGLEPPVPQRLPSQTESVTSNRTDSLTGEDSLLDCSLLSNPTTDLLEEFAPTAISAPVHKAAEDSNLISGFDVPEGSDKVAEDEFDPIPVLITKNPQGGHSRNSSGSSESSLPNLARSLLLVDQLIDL
T6 sequence (P42336 whole entry M1043I): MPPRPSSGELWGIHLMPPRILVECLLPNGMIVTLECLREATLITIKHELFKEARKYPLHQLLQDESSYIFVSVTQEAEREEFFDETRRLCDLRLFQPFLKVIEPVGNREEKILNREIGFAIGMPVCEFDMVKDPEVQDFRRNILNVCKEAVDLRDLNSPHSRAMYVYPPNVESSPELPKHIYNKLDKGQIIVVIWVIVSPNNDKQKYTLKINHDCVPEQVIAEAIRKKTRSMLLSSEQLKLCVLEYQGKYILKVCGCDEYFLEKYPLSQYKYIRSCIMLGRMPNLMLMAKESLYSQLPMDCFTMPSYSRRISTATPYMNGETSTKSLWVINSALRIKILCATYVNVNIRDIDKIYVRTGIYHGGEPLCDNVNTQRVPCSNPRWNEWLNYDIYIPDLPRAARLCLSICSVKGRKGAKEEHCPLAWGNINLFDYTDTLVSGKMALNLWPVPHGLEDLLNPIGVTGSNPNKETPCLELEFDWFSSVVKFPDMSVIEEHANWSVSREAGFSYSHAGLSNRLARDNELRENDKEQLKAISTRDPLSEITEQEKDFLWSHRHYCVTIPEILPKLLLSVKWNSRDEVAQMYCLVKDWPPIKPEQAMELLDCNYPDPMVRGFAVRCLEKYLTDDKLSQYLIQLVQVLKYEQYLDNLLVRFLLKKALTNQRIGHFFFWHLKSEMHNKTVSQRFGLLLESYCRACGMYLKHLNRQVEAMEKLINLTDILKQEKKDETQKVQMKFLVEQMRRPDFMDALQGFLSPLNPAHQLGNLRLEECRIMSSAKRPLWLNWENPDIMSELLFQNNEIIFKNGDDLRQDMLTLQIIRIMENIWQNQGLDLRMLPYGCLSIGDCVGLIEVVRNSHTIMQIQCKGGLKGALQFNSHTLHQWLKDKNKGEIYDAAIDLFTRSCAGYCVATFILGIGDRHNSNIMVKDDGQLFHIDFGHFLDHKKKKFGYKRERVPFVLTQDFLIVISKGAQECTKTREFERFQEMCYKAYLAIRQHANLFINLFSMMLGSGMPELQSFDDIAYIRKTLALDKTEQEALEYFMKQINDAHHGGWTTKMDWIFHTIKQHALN
T5 sequence (Q14012 whole entry): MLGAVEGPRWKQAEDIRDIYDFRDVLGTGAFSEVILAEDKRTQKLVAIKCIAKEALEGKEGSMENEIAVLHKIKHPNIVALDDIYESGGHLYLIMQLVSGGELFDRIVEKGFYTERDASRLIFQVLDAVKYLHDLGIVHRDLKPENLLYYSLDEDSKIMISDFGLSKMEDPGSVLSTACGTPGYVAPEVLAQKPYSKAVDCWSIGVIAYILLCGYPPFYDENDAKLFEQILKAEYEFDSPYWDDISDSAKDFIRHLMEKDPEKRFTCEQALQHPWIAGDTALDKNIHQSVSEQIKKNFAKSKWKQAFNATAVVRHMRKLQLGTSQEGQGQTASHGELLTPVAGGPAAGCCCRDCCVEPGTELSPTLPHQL
T12 sequence (Q9H422 whole entry): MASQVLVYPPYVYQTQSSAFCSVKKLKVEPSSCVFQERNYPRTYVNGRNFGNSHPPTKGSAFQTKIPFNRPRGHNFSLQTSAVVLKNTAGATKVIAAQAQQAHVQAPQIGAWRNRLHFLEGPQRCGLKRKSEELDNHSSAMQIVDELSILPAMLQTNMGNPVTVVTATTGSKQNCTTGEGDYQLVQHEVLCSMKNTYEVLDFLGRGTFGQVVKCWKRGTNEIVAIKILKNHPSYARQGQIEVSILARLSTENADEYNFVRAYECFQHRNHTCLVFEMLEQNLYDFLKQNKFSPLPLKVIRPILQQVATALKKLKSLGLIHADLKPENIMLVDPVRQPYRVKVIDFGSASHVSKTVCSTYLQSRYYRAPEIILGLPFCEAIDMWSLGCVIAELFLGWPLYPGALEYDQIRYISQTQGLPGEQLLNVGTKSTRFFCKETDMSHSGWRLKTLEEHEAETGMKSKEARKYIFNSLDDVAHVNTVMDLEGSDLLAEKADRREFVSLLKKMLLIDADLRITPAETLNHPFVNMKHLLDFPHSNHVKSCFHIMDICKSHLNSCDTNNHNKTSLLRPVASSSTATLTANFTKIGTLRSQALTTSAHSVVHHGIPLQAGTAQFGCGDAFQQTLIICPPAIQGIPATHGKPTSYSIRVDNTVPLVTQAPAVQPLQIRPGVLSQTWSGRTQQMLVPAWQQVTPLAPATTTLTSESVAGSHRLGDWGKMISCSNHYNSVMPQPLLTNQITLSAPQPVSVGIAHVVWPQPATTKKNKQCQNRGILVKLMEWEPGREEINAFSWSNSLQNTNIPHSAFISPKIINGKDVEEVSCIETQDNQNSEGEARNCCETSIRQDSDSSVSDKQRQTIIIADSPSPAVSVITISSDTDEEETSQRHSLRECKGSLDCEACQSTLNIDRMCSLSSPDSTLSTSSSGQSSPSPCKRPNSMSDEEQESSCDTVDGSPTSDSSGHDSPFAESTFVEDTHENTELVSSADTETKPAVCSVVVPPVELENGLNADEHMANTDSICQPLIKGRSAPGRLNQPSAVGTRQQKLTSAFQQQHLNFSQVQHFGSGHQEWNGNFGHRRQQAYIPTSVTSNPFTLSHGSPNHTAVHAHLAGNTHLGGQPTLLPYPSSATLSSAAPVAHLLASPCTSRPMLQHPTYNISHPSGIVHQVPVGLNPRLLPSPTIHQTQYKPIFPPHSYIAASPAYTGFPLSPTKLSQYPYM
T1 sequence (Q9C098 whole entry): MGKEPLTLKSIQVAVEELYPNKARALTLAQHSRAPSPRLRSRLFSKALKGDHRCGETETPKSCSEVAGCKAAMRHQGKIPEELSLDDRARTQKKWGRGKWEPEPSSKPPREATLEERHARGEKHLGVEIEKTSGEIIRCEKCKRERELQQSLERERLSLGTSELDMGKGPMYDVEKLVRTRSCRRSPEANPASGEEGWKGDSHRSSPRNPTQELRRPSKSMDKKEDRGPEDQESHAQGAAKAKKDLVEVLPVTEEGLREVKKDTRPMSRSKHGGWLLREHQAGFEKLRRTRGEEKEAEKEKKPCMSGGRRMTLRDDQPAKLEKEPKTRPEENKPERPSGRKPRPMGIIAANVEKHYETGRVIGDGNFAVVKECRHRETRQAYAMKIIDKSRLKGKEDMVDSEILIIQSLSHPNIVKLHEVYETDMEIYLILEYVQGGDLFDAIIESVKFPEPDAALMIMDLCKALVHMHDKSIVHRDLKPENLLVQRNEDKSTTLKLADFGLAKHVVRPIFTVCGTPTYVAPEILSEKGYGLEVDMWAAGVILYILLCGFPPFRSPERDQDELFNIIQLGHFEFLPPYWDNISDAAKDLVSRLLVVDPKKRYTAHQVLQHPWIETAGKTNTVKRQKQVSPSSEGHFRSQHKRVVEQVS
T11 sequence (P42336 whole entry H1047L): as the sequence (P42336 whole entry M1043I) above, with I1043M, H1047L counted along it

SMILES	remaining binding at 1 µM [1]	remaining binding at 1 µM [2]	remaining binding at 1 µM [3]	remaining binding at 1 µM [4]	remaining binding at 1 µM [5]	remaining binding at 1 µM [6]	remaining binding at 1 µM [7]	remaining binding at 1 µM [8]	remaining binding at 1 µM ([9]; CSF1R-autoinhibited)	remaining binding at 1 µM ([9]; CSF1R)	remaining binding at 1 µM [10]	remaining binding at 1 µM [11]	remaining binding at 1 µM [12]
CC1(Nc2nc(Nc3cnn([C@H]4CCN(C5COC5)C[C@@H]4F)c3Cl)nc3[nH]cc(C#N)c23)CC1 [Example 52, 2-((5-chloro-1-((3S,4S)-3-fluoro-1-(oxetane-3-yl)piperidine-4-yl)-1H-pyrazole-4-yl)amino)((1-methylcyclopropyl)amino)-7H-pyrrolo[2,3-d]pyrimidine-5-carbonitrile]	91%	31%	9.7%	0%	6.8%	37%	9.6%	0%	0%	0%	39%	70%	6.2%
CNc1nc(Nc2ccc(C(=O)N3CCOCC3)cc2OC)nc2[nH]cc(C#N)c12 [Example 1, 2-((2-methoxy-4-(morpholine-4-carbonyl)phenyl)amino)-4-(methylamino)-7H-pyrrolo[2,3-d]pyrimidine-5-carbonitrile]	98%	82%	75%	14%	59%	94%	78%	38%	46%	89%	95%	100%	64%
CCNc1nc(Nc2ccc(C(=O)N3CCC(N4CCOCC4)CC3)cc2OC)nc2[nH]cc(C(F)(F)F)c12 [Example 104, (4-((4-(ethylamino)-5-(trifluoromethyl)-7H-pyrrolo[2,3-d]pyrimidine-2-yl)amino)-3-methoxyphenyl)(4-morpholinopiperidine-1-yl)methanone]	90%	100%	92%	30%	72%	84%	90%	46%	100%	88%	45%	88%	16%
